These are literature values, as cited in patent US20030129629A1, “Methods and compositions for the identification, assessment, prevention, and therapy of human cancers” (Millennium Pharmaceuticals, Inc., priority 2000, published 2003).

SMILES strings stand for the structures.

For this data set, the system named is tumor. Particulars: animal models; cited from earlier work.

Consider `CC(=O)O[C@@]12CO[C@@H]1C[C@H](O)[C@@]1(C)C(=O)[C@H](O)C3=C(C)[C@@H](OC(=O)[C@H](O)[C@@H](NC(=O)OC(C)(C)C)c4ccccc4)C[C@@](O)([C@@H](OC(=O)c4ccccc4)[C@H]21)C3(C)C` [Taxotere, docetaxel], for which the anti-tumor activity result is on record as “good anti-tumor activity”.
